From ChEMBL document CHEMBL1201862, “PubChem BioAssay data set” (2004)
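Results reflect a 48-hour exposure of cells in 96-well plates to compound at five concentrations. GI50 marks 50% less growth.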 Activity calls are given as the source filed them. Cut-off read from the data, not from the text of the source: active = GI50 up to about 1.1 µM and inactive = higher.

Experiments:
Experiment in all cases: inhibition of tumour cell growth, NCI panel, 48 h
TK-10 = tested on: TK-10
786-0 = tested on: 786-0
OVCAR-3 = tested on: OVCAR-3
A498 = tested on: A498
NCI-H226 = tested on: NCI-H226
SNB-19 = tested on: SNB-19
Malme-3M = tested on: Malme-3M
KM12 = tested on: KM12
SNB-75 = tested on: SNB-75
HT-29 = tested on: HT-29
BT-549 = tested on: BT-549
MCF7 = tested on: MCF7
U-251 = tested on: U-251
SF-268 = tested on: SF-268
OVCAR-5 = tested on: OVCAR-5
HCT-15 = tested on: HCT-15
SK-OV-3 = tested on: SK-OV-3
HOP-92 = tested on: HOP-92
DU-145 = tested on: DU-145
CCRF-CEM = tested on: CCRF-CEM

| Compound | GI50 (TK-10) | GI50 (786-0) | GI50 (OVCAR-3) | GI50 (A498) | GI50 (NCI-H226) | GI50 (SNB-19) | GI50 (Malme-3M) | GI50 (KM12) | GI50 (SNB-75) | GI50 (HT-29) | GI50 (BT-549) | GI50 (MCF7) | GI50 (U-251) | GI50 (SF-268) | GI50 (OVCAR-5) | GI50 (HCT-15) | GI50 (SK-OV-3) | GI50 (HOP-92) | GI50 (DU-145) | GI50 (CCRF-CEM) |
| --- | --- | --- | --- | --- | --- | --- | --- | --- | --- | --- | --- | --- | --- | --- | --- | --- | --- | --- | --- | --- |
| N#CC(NCCO)=C1C(=O)c2ccccc2C1=O | > 100 µM (inactive) | > 100 µM (inactive) | > 100 µM (inactive) | > 100 µM (inactive) | > 100 µM (inactive) | > 100 µM (inactive) | > 100 µM (inactive) | > 100 µM (inactive) | > 100 µM (inactive) | > 100 µM (inactive) | > 100 µM (inactive) | > 100 µM (inactive) | > 100 µM (inactive) | > 100 µM (inactive) | > 100 µM (inactive) | > 100 µM | > 100 µM (inactive) | > 100 µM (inactive) | > 100 µM (inactive) |  |
| O=C1/C(=C/c2ccccc2)CN(C(=O)CCN2CCOCC2)C/C1=C\c1ccccc1 | 11.9 µM (inactive) | 1.96 µM (inactive) | 3.91 µM (inactive) | 12.9 µM (inactive) | 5.89 µM (inactive) | 5.45 µM (inactive) | 2.49 µM (inactive) | 1.6 µM (inactive) | 7.18 µM (inactive) | 1.95 µM (inactive) | 2.14 µM (inactive) | 1.95 µM (inactive) | 1.79 µM (inactive) | 2.87 µM (inactive) | 7.36 µM (inactive) | 2.14 µM | 10.7 µM (inactive) | 9.79 µM (inactive) | 16 µM (inactive) | 1.38 µM (inactive) |
| CCCCN1CCC(O)(c2cc(C(=O)O)[nH]c2-c2cc(C)no2)C1=O (stereo unspecified) | > 100 µM (inactive) | > 100 µM (inactive) | > 100 µM (inactive) | > 100 µM (inactive) |  | > 100 µM (inactive) | > 100 µM (inactive) | > 100 µM (inactive) | 49.9 µM (inactive) | > 100 µM (inactive) | > 100 µM (inactive) | > 100 µM (inactive) | > 100 µM (inactive) | > 100 µM (inactive) | > 100 µM (inactive) | > 100 µM | > 100 µM (inactive) | > 100 µM (inactive) | > 100 µM (inactive) |  |
| CCCCCCCC1c2cc3nc(cc4[nH]c(cc5nc(cc([nH]2)[C@@]1(C)CC(=O)N(C)C)C(C)=C5CCC(=O)O)c(CCC(=O)O)c4C)C=C3C (stereo partly specified) | 37.2 µM (inactive) | 29.5 µM (inactive) | 17.5 µM (inactive) | 33.3 µM (inactive) |  | 20.6 µM (inactive) | 19.9 µM (inactive) | 24.9 µM (inactive) | 18.7 µM (inactive) | 18.6 µM (inactive) | 14.9 µM (inactive) | 32.1 µM (inactive) | 18.9 µM (inactive) | 20.8 µM (inactive) | 25.5 µM (inactive) | 20.3 µM | 40.6 µM (inactive) | 21.2 µM (inactive) | 21.4 µM (inactive) | 18.8 µM (inactive) |
| CC1OC(OCC2OC(Oc3ccc(C4CC(=O)c5c(O)cc(O)cc5O4)cc3O)C(O)C(O)C2O)C(O)C(O)C1O (stereo unspecified) | > 100 µM (inactive) | > 100 µM (inactive) | > 100 µM (inactive) | > 100 µM (inactive) | > 100 µM (inactive) | > 100 µM (inactive) | > 100 µM (inactive) | > 100 µM (inactive) | > 100 µM (inactive) | > 100 µM (inactive) | > 100 µM (inactive) | > 100 µM (inactive) | > 100 µM (inactive) | > 100 µM (inactive) | > 100 µM (inactive) | > 100 µM | > 100 µM (inactive) | > 100 µM (inactive) | > 100 µM (inactive) | > 100 µM (inactive) |
| COc1cc(C2c3cc4c(cc3OC(O)C2C)OCO4)cc(OC)c1O (stereo unspecified) | 6.95 µM (inactive) | 8.89 µM (inactive) | 4.24 µM (inactive) | 23 µM (inactive) | 17 µM (inactive) | 11.6 µM (inactive) | 3.86 µM (inactive) | 4.76 µM (inactive) | 3.29 µM (inactive) | 4.7 µM (inactive) | 7.26 µM (inactive) | 4.4 µM (inactive) | 7.16 µM (inactive) | 15.8 µM (inactive) | 46.8 µM (inactive) | 5.43 µM | 6.59 µM (inactive) | 15.9 µM (inactive) | 23.5 µM (inactive) | 5.19 µM (inactive) |
| CN(C)c1ccc(C(=NN)c2ccc(N(C)C)cc2)cc1 | 0.557 µM (active) | 4.8 µM (inactive) | 0.798 µM (active) | 4.93 µM (inactive) | 3.52 µM (inactive) | 2.2 µM (inactive) | 53.3 µM (inactive) | 0.358 µM (active) | 0.401 µM (active) | 0.443 µM (active) | 1.77 µM (inactive) | 0.573 µM (active) | 0.486 µM (active) | 8.91 µM (inactive) | 4.95 µM (inactive) | 0.229 µM | 1.84 µM (inactive) | 14.5 µM (inactive) | 2.2 µM (inactive) | 0.394 µM (active) |
